# Reference: the supplement of paper PMC10307832
# Tests used:
# Assay in all cases: relative viability (nuclei count vs DMSO), 5 days (fraction); higher = more cells survive
# [1] = compound: CN1C=C(C2=CC=CC=C21)/C=C\3/C4=C(C=CC=N4)NC3=O + Nc1nc2[nH]cc(CCc3ccc(C(=O)N[C@@H](CCC(=O)O)C(=O)O)cc3)c2c(=O)[nH]1 [Pemetrexed] (partner 0.2 µM)
# Procedure, shortened: (§1)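 Lung cancer cell lines, seeded in 1536-well plates, were treated the following day by pin tool with a single drug or with five library-drug doses (not always all listed) in √10 steps on top of a fixed anchor-drug dose. Cells were fixed and nuclei stained in one step after 5 days, and nuclei were counted. Relative viability is the nuclei count for treated wells divided by that for vehicle wells, reported as medians of duplicate plates.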
# [2] = compound: CC(=O)Nc1cccc(-n2c(=O)n(C3CC3)c(=O)c3c(Nc4ccc(I)cc4F)n(C)c(=O)c(C)c32)c1 [Trametinib] + CC(C)C[C@H](NC(=O)[C@H](Cc1ccccc1)NC(=O)c1cnccn1)B(O)O [Bortezomib] (partner 0.002 µM)
# Procedure, shortened: as §1
# [3] = compound: CC(=O)Nc1cccc(-n2c(=O)n(C3CC3)c(=O)c3c(Nc4ccc(I)cc4F)n(C)c(=O)c(C)c32)c1 [Trametinib] + Nc1nc2[nH]cc(CCc3ccc(C(=O)N[C@@H](CCC(=O)O)C(=O)O)cc3)c2c(=O)[nH]1 [Pemetrexed] (partner 0.2 µM)
# Procedure, shortened: as §1
# [4] = compound: CC(=O)Nc1cccc(-n2c(=O)n(C3CC3)c(=O)c3c(Nc4ccc(I)cc4F)n(C)c(=O)c(C)c32)c1 [Trametinib] + COc1cc2c(Oc3ccc(NC(=O)C4(C(=O)Nc5ccc(F)cc5)CC4)cc3F)ccnc2cc1OCCCN1CCOCC1 [Foretinib] (partner 0.25 µM)
# Procedure, shortened: as §1
Cell Line,relative viability ([1]; first compound 0.02 µM),relative viability ([1]; first compound 0.06325 µM),relative viability ([1]; first compound 0.2 µM),relative viability ([1]; first compound 0.6325 µM),relative viability ([1]; first compound 2 µM),relative viability ([2]; first compound 0.0025 µM),relative viability ([2]; first compound 0.007906 µM),relative viability ([2]; first compound 0.025 µM),relative viability ([2]; first compound 0.07906 µM),relative viability ([2]; first compound 0.25 µM),relative viability ([3]; first compound 0.0025 µM),relative viability ([3]; first compound 0.007906 µM),relative viability ([3]; first compound 0.025 µM),relative viability ([3]; first compound 0.07906 µM),relative viability ([3]; first compound 0.25 µM),relative viability ([4]; first compound 0.0025 µM),relative viability ([4]; first compound 0.007906 µM),relative viability ([4]; first compound 0.025 µM),relative viability ([4]; first compound 0.07906 µM),relative viability ([4]; first compound 0.25 µM)
NCI-H2228,0.337,0.305,0.349,0.372,0.365,1.02,0.876,0.801,0.711,0.433,0.369,0.301,0.339,0.295,0.208,0.911,0.761,0.811,0.571,0.4
NCI-H2347,0.445,0.454,0.444,0.423,0.426,1.08,0.818,0.338,0.389,0.337,0.425,0.44,0.362,0.302,0.337,1.08,0.43,0.31,0.46,0.387
NCI-H2405,1,0.955,0.828,1.09,1.01,0.999,0.909,0.657,0.597,0.508,0.995,0.947,0.464,–,0.554,1.08,0.874,0.903,0.72,0.563
NCI-H3122,0.185,0.196,0.203,0.194,0.267,0.985,0.74,0.595,0.432,0.361,0.187,0.183,0.166,0.149,0.149,0.895,0.769,0.293,0.251,0.159
PC-3 [JPC-3],0.846,1.05,1.07,0.8,0.79,0.862,0.815,0.837,0.716,0.262,0.994,0.782,0.773,–,0.598,1,0.969,0.87,0.709,0.574
PC-14,0.141,0.137,0.145,0.143,0.118,0.918,0.834,0.673,0.76,0.594,0.131,0.113,0.153,0.132,0.141,0.911,0.823,0.809,0.885,0.693
RERF-LC-KJ,0.436,0.482,0.493,0.475,0.471,0.91,1.02,0.926,0.877,0.661,0.481,0.474,0.435,0.494,0.422,0.948,0.851,0.699,0.827,0.778
SK-LU-1,0.736,0.919,0.898,1.03,0.946,1.13,0.815,0.726,0.623,0.326,0.951,0.866,0.822,0.582,0.353,0.649,0.697,0.505,0.406,0.208
SW 1573,0.785,0.806,0.788,0.93,0.906,0.806,0.514,0.888,0.743,0.417,0.732,0.76,0.538,0.555,0.331,0.876,0.723,0.616,0.513,0.152
